The record followed here is PMC9408991, “Antitumor Effects of a New Retinoate of the Fungal Cytotoxin Illudin M in Brain Tumor Models” (International Journal of Molecular Sciences, 2022).

The structures appear in SMILES notation. Like-named read-outs stand apart in the source and are kept apart here.

The subject of one experiment is HL60 leukemia cells. Kind of experiment: MTT cell viability assay, HL60 leukemia. Type of experiment: cell-based. As to conditions: Homo sapiens, read-out: Inhibitory concentration IC50. The procedure: (§1) 518A2 (Department of Radiotherapy, Medical University of Vienna, Vienna, Austria) melanoma, KB-V1^Vbl (ACC-149) cervix carcinoma, MCF-7^Topo (ACC-115) breast carcinoma, HT29 (ACC-299) colon carcinoma were cultivated in Dulbecco’s Modified Eagle Medium (DMEM) supplemented with 10% fetal bovine serum and 1% antibiotic-antimycotic at 37 °C, 5% CO2, and 95% humidity. To keep MCF-7^Topo and KB-V1^Vbl cells resistant, the maximum-tolerated doses of topotecan or vinblastine were added to the cell culture medium 24 h after every passage. The human HL60 leukemia cells were obtained from the German National Resource Center for Biological Material (DSMZ), Braunschweig. Neuroectodermal stem cells NE-4C (ATCC No. CRL-2925), primary mouse astrocytes, rat glioma C6 (ATCC No. CCL-107) and human glioma U87 (ATCC No. HTB-14) were used.
(§2) Non-GBM cells (5 × 10^4 cells/mL, 100 µL/well) were grown in 96-well plates for 24 h. […] After the addition of 12.5 µL of a 0.5% MTT solution in PBS, the cells were incubated for 3 h at 37 °C so that the water-soluble MTT could be converted to formazan crystals. Then, the plates were centrifuged (300× g, 5 min, 4 °C), the medium withdrawn, and the formazan dissolved in 25 µL of DMSO containing 10% sodium dodecylsulfate (SDS) and 0.6% acetic acid for at least 2 h at 37 °C. In the case of the HL60 cells, after 2 h, the precipitate of formazan crystals was redissolved in a 10% solution of SDS in DMSO containing 0.6% acetic acid.
For orientation: Tetrazolium dyes change colour on reduction, which living cells bring about.

The subject of experiment [1] is KBv1^+Vbl cervix carcinoma cells. The experiment in a line: MTT cell viability assay, KBv1+Vbl cervix carcinoma. The format is cell-based. As to conditions: Homo sapiens, KB-V1/Vbl, read-out: Inhibitory concentration IC50. The procedure: as §1, §2
The test system of experiment [2] is astrocytes and neurons in primary neuronal cultures. Kind of experiment: Immunostaining of GFAP and βIII-tubulin in primary neuronal cultures. As to conditions: 1 µM; for effect on GFAP filaments of astrocytes: 48 h exposure. The format is cell-based, mouse. The procedure:
Astroglia cells grown on poly-L-lysine-coated glass cover slips were fixed with 4% paraformaldehyde in PBS for 20 min at room temperature and then permeabilized with Triton X-100 (0.1% v/v in PBS; 5 min). Nonspecific antibodies were blocked by incubation with 3% FBS in PBS (room temperature, 1 h). α-GFAP antibody (rabbit, DAKO) was used in a dilution of 1:2000 and was visualized by anti-rabbit IgG Alexa 594 (1:1000). DAPI (4′,6-diamidino-2-phenylindole) was used for nuclei staining. Fluorescence images were captured manually on a Zeiss Axiovert 200 M microscope fitted with 20- to 60-fold zoom and a Zeiss AxioCam MRm digital camera. Further applied antibodies were tubulin III (Sigma T5076), used at a dilution of 1:1000, and Annexin V. Cy3.18 (Sigma A4963).
Figure 4 Immunostaining of primary neurons derived from E14, 5 forebrains treated with 1 µM of 1, 2 or all-trans retinoic acid (RA) plus 1. Blue: nuclei stained with DAPI; green: tubulin stained with βIII-tubulin specific antibody; red: GFAP stained with α-GFAP antibody. Fluorescence microscope Zeiss Axiovert 200 M, 63× objective, 1024 × 1024 res. Scale bar: 50 µm.

The subject of experiment [3] is co-cultures of neuronal cells and U87 glioma cells. The experiment in a line: Co-culture of primary neurons and U87 glioma cells. The format is cell-based, mouse / human. The following applies: 1 µM. The procedure:
The selectivity of illudins 1 and 2 for U87 glioblastoma cells versus normal neuronal cells was evaluated by applying them to co-cultures of these cells serving as a surrogate brain tumor model. To this end, isolated murine primary neurons were grown on IBIDI dishes and after […] and the establishment of neuronal aggregates, the glioma U87 cells (~ 25,000 cells) were added to the neuronal culture. After 12 h, 1 and 2 were applied in 1 µM concentrations and the response of the different cells was monitored over a period between 15 and 48 h post incubation (Figure 8). In the control samples, the number of proliferating U87 cells increased with time and overgrew the diminishing number of differentiating neurons.
NE-4C cells derived from the anterior brain vesicles of p53-deficient 9-day-old mouse embryos were maintained in Minimum Essential Medium (MEM; Sigma Aldrich, Taufkirchen, Germany) supplemented with 5% fetal calf serum (FCS; Invitrogen-Gibco, Carlsbad, CA, USA), 4 mM glutamine (Sigma-Aldrich, Taufkirchen, Germany) and 40 ug/mL gentamycin (Chinoin, Budapest, Hungary). For maintenance, subconfluent cultures were regularly split by trypsinization (0.05 w/v% trypsin in PBS) into poly-L-lysine-coated Petri dishes. Primary astrocytes were isolated from whole brains of neonatal (P0-P3) mice, as described earlier. In brief, meninges were removed, and the tissue pieces were subjected to enzymatic dissociation, using 0.05% w/v trypsin and 0.05% w/v DNase for 10 min at room temperature. The cells were plated onto poly-L-lysine coated plastic surfaces and grown in MEM supplemented with 10% fetal calf serum, 4 mM glutamine and 40 ug/mL gentamycin. Primary neuronal cultures were prepared from embryonic (E15–E16) mouse (CD1) forebrains, as described earlier. In brief, cell suspensions were prepared by mechanical dissociation over a nylon mesh with a pore diameter of 40–42 μm. The cells were seeded at 10^5 cells/cm^2 density onto PLL-coated surfaces. The cultures were maintained in MEM supplemented with 5% FCS, 4 mM glutamine, 40 µg/mL gentamicin and 2.5 μg/mL amphotericin B (Sigma). In co-culture experiments, U87 glioma cells were seeded onto established neuronal cultures at DIV3 in a 25,000 cell/cm^2 density.
Figure 8 Co-culture of neuronal cells and U87 glioma cells in the absence or presence of 1 µM of 1 or 2. The neuronal aggregates are marked by arrowheads. Scale bar: 100 µm.

On to `CC1=C(/C=C/C(C)=C/C=C/C(C)=C/C(=O)O[C@@H]2C3=C(C)C4(CC4)[C@@](C)(O)C(=O)C3=CC2(C)C)C(C)(C)CCC1` [Compound 2, illudin M retinoate], for which the IC50 with HL60 leukemia cells (HL-60, HL60, 24 h exposure) is 6800 ± 2800 nM; in the experiment with HL60 leukemia cells (HL-60, HL60, 48 h exposure), 4500 ± 1100 nM; in experiment [1] (24 h exposure), 1600 ± 400 nM; in experiment [1] (48 h exposure), 1200 ± 100 nM. In experiment [2], the “effect on GFAP filaments of astrocytes” value is on record as “did not cause similar alterations to astrocytes”. In addition, the “response of neurons and U87 cells in co-culture” value in experiment [3] (15 h after treatment) was “healthy and compact neuronal aggregates”; in experiment [3] (48 h after treatment), “many neurons were still present”.

Regarding `CC1=C2C(=CC(C)(C)[C@@H]2O)C(=O)[C@](C)(O)C12CC2` [Compound 1, illudin M], the IC50 in the experiment on HL60 leukemia cells (HL-60, HL60, 24 h exposure) came out at 7 ± 2 nM; in the experiment on HL60 leukemia cells (HL-60, HL60, 48 h exposure), 1 nM; in experiment [1] (24 h exposure), 3 ± 1 nM; in experiment [1] (48 h exposure), 2 nM. Moreover, the “effect on neuronal networks” value in experiment [2] (48 h) is on record as “did not completely disorganize neuronal networks”. Moreover, in experiment [2], the “effect on GFAP filaments of astrocytes” value is given as “markedly pitted”. The figures for the “response of neurons and U87 cells in co-culture” value in experiment [3] (15 h after treatment) and in experiment [3] (48 h after treatment) were “considerable cellular fragmentation” and “merely cell debris”, respectively.
